The values that follow are results of earlier work, collected in patent publication US20110256058A1, “Novel Peptides and Uses Thereof” (UNIVERSITY OF SOUTHERN CALIFORNIA, priority 2007, published 2011).

The data set deals with α2 aI domain. The following applies: literature; for conformational effect on α2 receptor: open conformation of α2 receptor.

For RSECD, the “inhibition of aI domain / α2β1 binding to collagen and laminin” value was “fails to inhibit collagen binding”.
Regarding “CTRKKHDC [RKKH peptide of structural studies in the literature]”, the “conformational effect on α2 receptor” value is listed as “induce conformational change”.
On to CTRKKHDNAQC, for which the “binding to aI domain” value is on record as “binds to aI domain”; the “inhibition of aI domain / α2β1 binding to collagen and laminin” value was “prevents its binding to collagen (type I, IV) and laminin (type 1)”.
As to “CARKKHDC [RKKH peptide of structural studies in the literature]”, the “conformational effect on α2 receptor” value is “induce conformational change”.
